Results taken from the RepoRT retention time repository (doi:10.1021/es4044374).

Test: RP, Waters XBridge C18, 50 × 2.1 mm, 3.5 µm, 30 °C, 0.2 mL/min, estimated dead time 0.55 min; A: water + 0.1% formic acid, pH 3; B: methanol + 0.1% formic acid, pH 3; gradient (min/%B) 0/10 4/50 17/95 25/95 25.1/10 30/10
Conditions: stereoisomer not certain
Work on CC(C)Cc1ccc(C(C)C(=O)O)cc1 (configuration not stated) [Ibuprofen] yielded an LC retention time of 13.6 min. For O=P1(NCCCl)OCCCN1CCCl (configuration not stated) [Ifosfamide], the LC retention time was 6.3 min. In the case of COCc1cnc(C2=NC(C)(C(C)C)C(=O)N2)c(C(=O)O)c1 (configuration not stated) [Imazamox], the LC retention time is reported as 5.7 min. O=C1NCCN1Cc1ccc(Cl)nc1 [Imidacloprid-urea] gave an LC retention time of 4.6 min. O=[N+]([O-])/N=C1\NCCN1Cc1ccc(Cl)nc1 [Imidacloprid] showed an LC retention time of 4.8 min. For C1=Cc2ccccc2Nc2ccccc21 [Iminostilbene], the LC retention time was 11 min. COc1ccc2c(c1)c(CC(=O)O)c(C)n2C(=O)c1ccc(Cl)cc1 [Indomethacin] gave an LC retention time of 12.9 min. For CN(CC(O)CO)C(=O)c1c(I)c(NC(=O)C(CO)CO)c(I)c(C(=O)N(C)CC(O)CO)c1I (configuration not stated) [Iobitridol], the LC retention time was 1.6 min. CCCCNC(=O)OCC#CI [Iodocarb] gave an LC retention time of 8.4 min. CC(=O)N(CC(O)CO)c1c(I)c(C(=O)NCC(O)CO)c(I)c(C(=O)NCC(O)CO)c1I (configuration not stated) [Iohexol] gave an LC retention time of 1.6 min. CN(C(=O)CO)c1c(I)c(C(=O)NCC(O)CO)c(I)c(C(=O)NCC(O)CO)c1I (configuration not stated) [Iomeprol] gave an LC retention time of 1.6 min. CC(O)C(=O)Nc1c(I)c(C(=O)NC(CO)CO)c(I)c(C(=O)NC(CO)CO)c1I (configuration not stated) [Iopamidol] showed an LC retention time of 1.2 min. With COCC(=O)Nc1c(I)c(C(=O)NCC(O)CO)c(I)c(C(=O)N(C)CC(O)CO)c1I (configuration not stated) [Iopromide] the LC retention time was 2.7 min. CC(=O)Nc1c(I)c(C(=O)O)c(I)c(C(=O)NCCO)c1I [Ioxitalamic acid] showed an LC retention time of 1.3 min. Work on N#Cc1cc(I)c(O)c(I)c1 [Ioxynil] yielded an LC retention time of 9.3 min. Work on Cc1ccc(C(C)NC(=O)C(NC(=O)OC(C)C)C(C)C)cc1 (configuration not stated) [Iprovalicarb] yielded an LC retention time of 11.4 min. CCCCC1=NC2(CCCC2)C(=O)N1Cc1ccc(-c2ccccc2-c2nn[nH]n2)cc1 [Irbesartan] showed an LC retention time of 9.2 min. With CSc1nc(N)nc(NC(C)(C)C)n1 [Irgarol-descyclopropyl] the LC retention time was 6.7 min. CSc1nc(NC2CC2)nc(NC(C)(C)C)n1 [Irgarol] gave an LC retention time of 9.2 min. Work on CC(C)c1ccc(NC(N)=O)cc1 [Isoproturon-didemethyl] yielded an LC retention time of 8 min. CNC(=O)Nc1ccc(C(C)C)cc1 [Isoproturon-monodemethyl] showed an LC retention time of 8.6 min. CC(C)c1ccc(NC(=O)N(C)C)cc1 [Isoproturon] showed an LC retention time of 8.7 min. Work on CNC1(c2ccccc2Cl)CCCCC1=O (configuration not stated) [Ketamine] yielded an LC retention time of 4.6 min. Compound CC(C(=O)O)c1cccc(C(=O)c2ccccc2)c1 (configuration not stated) [Ketoprofen] has an LC retention time of 9.6 min. Compound CON=C(C(=O)OC)c1ccccc1COc1ccccc1C [Kresoxim-methyl] has an LC retention time of 12.5 min. With Nc1nnc(-c2cccc(Cl)c2Cl)c(N)n1 [Lamotrigine] the LC retention time was 5.4 min. For O=c1[nH]c2c(c(=O)n1C1CCCCC1)CCC2 [Lenacil], the LC retention time was 8.6 min. In the case of c1ccc(C2CN3CCSC3=N2)cc1 (configuration not stated) [Levamisole], the LC retention time is reported as 2.9 min. Compound CCC(C(N)=O)N1CCCC1=O (configuration not stated) [Levetiracetam] has an LC retention time of 3 min. CCN(CC)CC(=O)Nc1c(C)cccc1C [Lidocaine] gave an LC retention time of 4.2 min. CON(C)C(=O)Nc1ccc(Cl)c(Cl)c1 [Linuron] showed an LC retention time of 10 min. Compound Cc1cc(Cl)ccc1OCC(=O)O [MCPA] has an LC retention time of 9.5 min. Cc1cc(Cl)ccc1OCCCC(=O)O [MCPB] gave an LC retention time of 11.9 min. In the case of Cc1cc(Cl)ccc1OC(C)C(=O)O (configuration not stated) [Mecoprop], the LC retention time is reported as 10.8 min. With Cc1cccc(Nc2ccccc2C(=O)O)c1C [Mefenamic acid] the LC retention time was 14.5 min. CNC(C)C(=O)c1ccc(C)cc1 (configuration not stated) [Mephedrone] gave an LC retention time of 4.3 min. CS(=O)(=O)c1ccc(C(=O)C2C(=O)CCCC2=O)c([N+](=O)[O-])c1 [Mesotrione] showed an LC retention time of 6.2 min. With COCC(=O)N(c1c(C)cccc1C)C(C)C(=O)OC (configuration not stated) [Metalaxyl] the LC retention time was 8.7 min. In the case of Cc1nnc(-c2ccccc2)c(=O)[nH]1 [Metamitron-desamino], the LC retention time is reported as 5.1 min. Cc1nnc(-c2ccccc2)c(=O)n1N [Metamitron] gave an LC retention time of 4.9 min. Cc1cccc(C)c1N(Cn1cccn1)C(=O)CS(=O)(=O)O [Metazachlor ESA] gave an LC retention time of 5.5 min. With Cc1cccc(C)c1N(Cn1cccn1)C(=O)C(=O)O [Metazachlor OXA] the LC retention time was 5.5 min. For Cc1cccc(C)c1N(Cn1cccn1)C(=O)CCl [Metazachlor], the LC retention time was 8.5 min. For CN(C)C(=N)N=C(N)N [Metformin], the LC retention time was 0.8 min. With CCC(=O)C(CC(C)N(C)C)(c1ccccc1)c1ccccc1 (configuration not stated) [Methadone] the LC retention time was 8.4 min. With CNC(C)Cc1ccccc1 (configuration not stated) [Methamphetamine] the LC retention time was 3.7 min. In the case of CNC(=O)Oc1cc(C)c(S(C)=O)c(C)c1 (configuration not stated) [Methiocarb-sulfoxide], the LC retention time is reported as 4.9 min. CNC(=O)Oc1cc(C)c(SC)c(C)c1 [Methiocarb] gave an LC retention time of 10.4 min. With CNC(=O)ON=C(C)SC [Methomyl] the LC retention time was 3.6 min. Work on COc1cccc(C(=O)NN(C(=O)c2cc(C)cc(C)c2)C(C)(C)C)c1C [Methoxyfenozide] yielded an LC retention time of 10.9 min. CC1CC2C(C(O)CC3(C)C2CCC3(O)C(=O)CO)C2(C)C=CC(=O)C=C12 (configuration not stated) [Methylprednisolone] gave an LC retention time of 9.2 min. For CCN(CC)CCNC(=O)c1cc(Cl)c(N)cc1OC [Metoclopramide], the LC retention time was 4.3 min. CCc1cccc(C)c1N(C(=O)CS(=O)(=O)O)C(C)COC (configuration not stated) [Metolachlor ESA] gave an LC retention time of 7.8 min. For CCc1cccc(C)c1N(C(=O)C(=O)O)C(C)COC (configuration not stated) [Metolachlor OXA], the LC retention time was 9.3 min. For CCc1cccc(C)c1N1C(=O)COCC1C (configuration not stated) [Metolachlor morpholinone], the LC retention time was 8.2 min. CCc1cccc(C)c1N(C(=O)CCl)C(C)COC (configuration not stated) [Metolachlor] gave an LC retention time of 11.8 min. COCCc1ccc(OCC(O)CNC(C)C)cc1 (configuration not stated) [Metoprolol] gave an LC retention time of 5.1 min. For CC(C)(C)c1n[nH]c(=O)n(N)c1=O [Metribuzin-diketo], the LC retention time was 5.9 min. Work on CSc1nnc(C(C)(C)C)c(=O)n1N [Metribuzin] yielded an LC retention time of 6.9 min. Work on Cc1ncc([N+](=O)[O-])n1CCO [Metronidazole] yielded an LC retention time of 2.1 min. Compound COC(=O)c1ccccc1S(=O)(=O)NC(=O)Nc1nc(C)nc(OC)n1 [Metsulfuron-methyl] has an LC retention time of 7.1 min. Compound C=C1C(=O)NC(C)C(=O)NC(CC(C)C)C(=O)NC(C(=O)O)C(C)C(=O)NC(CCCN=C(N)N)C(=O)NC(C=CC(C)=CC(C)C(Cc2ccccc2)OC)C(C)C(=O)NC(C(=O)O)CCC(=O)N1C (configuration not stated) [Microcystin-LR] has an LC retention time of 10.2 min. Compound O=C(NCCN1CCOCC1)c1ccc(Cl)cc1 [Moclobemide] has an LC retention time of 4.5 min. In the case of CN(C)C(=O)Nc1ccc(Cl)cc1 [Monuron], the LC retention time is reported as 6.7 min. With CN1CCC23c4c5ccc(O)c4OC2C(O)C=CC3C1C5 (configuration not stated) [Morphine] the LC retention time was 1.1 min. With CCCCC(C#N)(Cn1cncn1)c1ccc(Cl)cc1 (configuration not stated) [Myclobutanil] the LC retention time was 11.2 min. In the case of COc1c(C)c2c(c(O)c1CC=C(C)CCC(=O)O)C(=O)OC2 [Mycophenolic acid], the LC retention time is reported as 9.9 min. CC(=O)Nc1ccc(S(=O)(=O)Nc2ncccn2)cc1 [N4-Acetylsulfadiazine] showed an LC retention time of 3.6 min. With COc1cc(OC)nc(NS(=O)(=O)c2ccc(NC(C)=O)cc2)n1 [N4-Acetylsulfadimethoxine] the LC retention time was 6.3 min. Compound CC(=O)Nc1ccc(S(=O)(=O)Nc2nc(C)cc(C)n2)cc1 [N4-Acetylsulfamethazine] has an LC retention time of 4.5 min. In the case of CC(=O)Nc1ccc(S(=O)(=O)Nc2cc(C)on2)cc1 [N4-Acetylsulfamethoxazole], the LC retention time is reported as 5.5 min. In the case of CC(=O)Nc1ccc(S(=O)(=O)Nc2nccs2)cc1 [N4-Acetylsulfathiazole], the LC retention time is reported as 4.1 min. In the case of CN=CNc1ccc(C)cc1C [N'-(2,4-Dimethylphenyl)-N-methylformamidine], the LC retention time is reported as 4.5 min. COc1ccc(C(CN)C2(O)CCCCC2)cc1 (configuration not stated) [N,N-Didesmethylvenlafaxine] showed an LC retention time of 6.3 min. Work on Cc1ccc(NS(=O)(=O)N(C)C)cc1 [N,N-Dimethyl-N'-p-tolylsulphamide] yielded an LC retention time of 7.5 min. CN(C)S(=O)(=O)Nc1ccccc1 [N,N-Dimethyl-N'-phenylsulfamide] showed an LC retention time of 6.3 min. With CN(C)S(N)(=O)=O [N,N-Dimethylsulfamide] the LC retention time was 1.1 min. Work on CNCC(c1ccc(O)cc1)C1(O)CCCCC1 (configuration not stated) [N,O-Didesmethylvenlafaxine] yielded an LC retention time of 4.9 min. Compound CNCC(c1ccc(OC)cc1)C1(O)CCCCC1 (configuration not stated) [N-Desmethylvenlafaxine] has an LC retention time of 6.3 min. Work on CCNS(=O)(=O)C(F)(F)C(F)(F)C(F)(F)C(F)(F)C(F)(F)C(F)(F)C(F)(F)C(F)(F)F [N-Ethylperfluoroctansulfonamid (N-EtFOSA)] yielded an LC retention time of 17.1 min. CCN(CC(=O)O)S(=O)(=O)C(F)(F)C(F)(F)C(F)(F)C(F)(F)C(F)(F)C(F)(F)C(F)(F)C(F)(F)F [N-Ethylperfluorooctane sulfonamidoacetic acid] showed an LC retention time of 16.9 min. For CN(CC(=O)O)S(=O)(=O)C(F)(F)C(F)(F)C(F)(F)C(F)(F)C(F)(F)C(F)(F)C(F)(F)C(F)(F)F [N-methylperfluorooctane sulfonamidoacetic acid], the LC retention time was 16.5 min. Work on O=C1CCC2(O)C3Cc4ccc(O)c5c4C2(CCN3CC2CC2)C1O5 (configuration not stated) [Naltrexone] yielded an LC retention time of 3.1 min. With CCN(CC)C(=O)C(C)Oc1cccc2ccccc12 (configuration not stated) [Napropamid] the LC retention time was 11.7 min. For COc1ccc2cc(C(C)C(=O)O)ccc2c1 (configuration not stated) [Naproxen], the LC retention time was 10.2 min. COc1ccc(CCC(=O)c2c(O)cc(OC3OC(CO)C(O)C(O)C3OC3OC(C)C(O)C(O)C3O)cc2O)cc1O (configuration not stated) [Neohesperidin dihydrochalcone] showed an LC retention time of 7.2 min. Compound COC(=O)C(Cc1ccccc1)NC(=O)C(CC(=O)O)NCCC(C)(C)C (configuration not stated) [Neotame] has an LC retention time of 9 min.
